Test results published in patent publication US20240270762A1, “PENICILLIN-BINDING PROTEIN INHIBITORS” (priority 2021, published 2024).
In brackets after ≈: the same amount, converted by molar mass. Where two headings read alike, the source gives them in different places.

Key:
[1] = tested on: N. gonorrhoeae CDC-0197; assay: Liquid broth MIC in Fastidious broth; conditions: Neisseria gonorrhoeae
[2] = biological target: T1, PBP3 from Acinetobacter baumannii (ATCC 19606) (Acinetobacter baumannii, UniProt A0ABX6CK25); assay: Bocillin-FL fluorescence polarization competition binding, A. baumannii PBP3; conditions: fluorescence polarization competition binding assay using Bocillin-FL; read-out: A. baumannii PBP3 Potency
T1 sequence (A0ABX6CK25 64-610): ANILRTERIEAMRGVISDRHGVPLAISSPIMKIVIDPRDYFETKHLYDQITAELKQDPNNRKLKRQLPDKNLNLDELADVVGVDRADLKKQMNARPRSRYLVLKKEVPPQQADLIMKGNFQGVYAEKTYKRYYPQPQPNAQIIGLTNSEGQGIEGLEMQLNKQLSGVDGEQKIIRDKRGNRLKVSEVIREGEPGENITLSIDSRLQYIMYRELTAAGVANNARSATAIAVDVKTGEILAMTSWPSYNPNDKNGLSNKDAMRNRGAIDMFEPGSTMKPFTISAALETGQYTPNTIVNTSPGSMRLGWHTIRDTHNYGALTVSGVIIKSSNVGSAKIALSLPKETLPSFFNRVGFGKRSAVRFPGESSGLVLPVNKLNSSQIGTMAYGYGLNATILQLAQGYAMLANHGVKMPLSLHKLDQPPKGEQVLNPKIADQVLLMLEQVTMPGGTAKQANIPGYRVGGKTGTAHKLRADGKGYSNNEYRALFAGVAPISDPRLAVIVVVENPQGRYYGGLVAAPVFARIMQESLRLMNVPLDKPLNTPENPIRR
Summary of the method: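 Purified PBPs pre-incubated with inhibitor (E. coli PBP3 1.5 μM, 30 min; P. aeruginosa PBP3 0.75 μM, A. baumannii PBP1a 1 μM and PBP3 0.2 μM, 15 min), then Bocillin-FL 0.1 μM (0.05 μM for PBP1a) added; FP read up to 60 min. EC50 = concentration halving bound Bocillin-FL.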

[3] = tested on: A. baumannii 1258916; assay: microbe, parasite or virus in culture; type: cell-based, Acinetobacter baumannii; conditions: Acinetobacter baumannii, 1258916, read-out: MIC, A. baumannii 1258916
[4] = tested on: A. baumannii ATCC 19606; assay: microbe, parasite or virus in culture; type: cell-based; conditions: Acinetobacter baumannii, ATCC19606, read-out: MIC, A. baumannii ATCC 19606
[5] = tested on: N. gonorrhoeae WHO G; assay: Liquid broth MIC in Fastidious broth; conditions: Neisseria gonorrhoeae
[6] = tested on: A. baumannii CDC-0045; assay: microbe, parasite or virus in culture; type: cell-based; conditions: Acinetobacter baumannii, CDC0045, read-out: MIC, A. baumannii CDC-0045
[7] = tested on: N. gonorrhoeae WHO M; assay: Liquid broth MIC in Fastidious broth; conditions: Neisseria gonorrhoeae
[8] = tested on: P. aeruginosa CDC-0090; assay: microbe, parasite or virus in culture; type: cell-based; conditions: Pseudomonas aeruginosa, CDC0090, read-out: Minimum inhibitory concentration, P. aeruginosa CDC-0090
[9] = CDC0197, read-out: Minimum Inhibitory Concentration, CDC-0197
[10] = read-out: Minimum Inhibitory Concentration, WHO G
[11] = read-out: Minimum Inhibitory Concentration, WHO M
[12] = CDC0197, read-out: Minimum Inhibitory Concentration (MIC), N. gonorrhoeae CDC-0197
[13] = read-out: Minimum Inhibitory Concentration (MIC), N. gonorrhoeae WHO G
[14] = read-out: Minimum Inhibitory Concentration (MIC), N. gonorrhoeae WHO M

| Structure (SMILES) | MIC [1, 9] [µg/mL] | IC50 [2] [µM] | MIC [3] [µg/mL] | MIC [4] [µg/mL] | MIC [5, 10] [µg/mL] | MIC [6] [µg/mL] | MIC [7, 11] [µg/mL] | MIC [8] [µg/mL] | MIC [1, 12] [µg/mL] | MIC [5, 13] [µg/mL] | MIC [7, 14] [µg/mL] |
| --- | --- | --- | --- | --- | --- | --- | --- | --- | --- | --- | --- |
| O=C(NCCS(=O)(=O)N1CCN(C(=O)N[C@@H](C(=O)N[C@H]2Cc3ccc(F)c(C(=O)O)c3OB2O)c2cc(F)c(O)c(O)c2Cl)C1=O)c1nccs1 [Example 264, (R)-3-((R)-2-(2-chloro-5-fluoro-3,4-dihydroxyphenyl)-2-(2-oxo-3-((2-(thiazole-2-carboxamido)ethyl)sulfonyl)imidazolidine-1-carboxamido)acetamido)-7-fluoro-2-hydroxy-3,4-dihydro-2H-benzo[e][1,2]oxaborinine-8-carboxylic acid] | 16 to 32 (≈ 20.7 to 41.4 µM) | < 10 | < 1 | < 1 | 16 to 32 (≈ 20.7 to 41.4 µM) | < 1 | 4 to 8 (≈ 5.18 to 10.4 µM) | < 1 |  |  |  |
| O=C(NCCN1CCN(C(=O)NC(C(=O)N[C@H]2Cc3ccc(F)c(C(=O)O)c3OB2O)c2cc(F)c(O)c(O)c2Cl)C1=O)Nc1cccc(O)c1 (stereo partly drawn) [Example 249, (3R)-3-(2-(2-chloro-5-fluoro-3,4-dihydroxyphenyl)-2-(3-(2-(3-(3-hydroxyphenyl)ureido)ethyl)-2-oxoimidazolidine-1-carboxamido)acetamido)-7-fluoro-2-hydroxy-3,4-dihydro-2H-benzo[e][1,2]oxaborinine-8-carboxylic acid] | > 64 | < 10 | < 1 | < 1 | 16 to 32 (≈ 21.8 to 43.7 µM) | < 1 | 16 to 32 (≈ 21.8 to 43.7 µM) | < 1 |  |  |  |
| O=C(NCCCN1CCN(C(=O)N[C@@H](C(=O)N[C@H]2Cc3ccc(F)c(C(=O)O)c3OB2O)c2cc(F)c(O)c(O)c2Cl)C1=O)c1cccc(O)c1 [Example 255, (R)-3-((R)-2-(2-chloro-5-fluoro-3,4-dihydroxyphenyl)-2-(3-(3-(3-hydroxybenzamido)propyl)-2-oxoimidazolidine-1-carboxamido)acetamido)-7-fluoro-2-hydroxy-3,4-dihydro-2H-benzo[e][1,2]oxaborinine-8-carboxylic acid] | 16 to 32 (≈ 21.9 to 43.7 µM) | < 10 | < 1 | < 1 | 4 to 8 (≈ 5.47 to 10.9 µM) | < 1 | 4 to 8 (≈ 5.47 to 10.9 µM) | < 1 |  |  |  |
| O=C(NCCCN1CCN(C(=O)NC(C(=O)N[C@H]2Cc3ccc(F)c(C(=O)O)c3OB2O)c2cc(F)c(O)c(O)c2Cl)C(=O)C1=O)Nc1cccnc1 (stereo partly drawn) [Example 213, (3R)-3-(2-(2-chloro-5-fluoro-3,4-dihydroxyphenyl)-2-(2,3-dioxo-4-(3-(3-(pyridin-3-yl)ureido)propyl)piperazine-1-carboxamido)acetamido)-7-fluoro-2-hydroxy-3,4-dihydro-2H-benzo[e][1,2]oxaborinine-8-carboxylic acid] |  | < 10 | < 1 | < 1 |  | 2 to 4 (≈ 2.63 to 5.26 µM) |  | 2 to 4 (≈ 2.63 to 5.26 µM) | > 64 | 16 to 32 (≈ 21.1 to 42.1 µM) | 16 to 32 (≈ 21.1 to 42.1 µM) |
| O=C(NCCN1CCN(C(=O)NC(C(=O)N[C@H]2Cc3ccc(F)c(C(=O)O)c3OB2O)c2cc(F)c(O)c(O)c2Cl)C1=O)Nc1ccncc1 (stereo partly drawn) [Example 250, (3R)-3-(2-(2-chloro-5-fluoro-3,4-dihydroxyphenyl)-2-(2-oxo-3-(2-(3-(pyridin-4-yl)ureido)ethyl)imidazolidine-1-carboxamido)acetamido)-7-fluoro-2-hydroxy-3,4-dihydro-2H-benzo[e][1,2]oxaborinine-8-carboxylic acid] | > 64 | < 10 | < 1 | < 1 | > 64 | < 1 | 16 to 32 (≈ 22.3 to 44.6 µM) | 2 to 4 (≈ 2.79 to 5.57 µM) |  |  |  |
| O=C(NCCCN1CCN(C(=O)N[C@H](C(=O)N[C@H]2Cc3ccc(F)c(C(=O)O)c3OB2O)c2cc(F)c(O)c(O)c2Cl)C1=O)c1ccccc1 [Example 252, (R)-3-((S)-2-(3-(3-benzamidopropyl)-2-oxoimidazolidine-1-carboxamido)-2-(2-chloro-5-fluoro-3,4-dihydroxyphenyl)acetamido)-7-fluoro-2-hydroxy-3,4-dihydro-2H-benzo[e][1,2]oxaborinine-8-carboxylic acid] | > 64 | 50 to 250 | > 128 | > 128 | > 64 | > 128 | > 64 | > 128 |  |  |  |
| O=C(NCCN1CCN(C(=O)NC(C(=O)N[C@H]2Cc3ccc(F)c(C(=O)O)c3OB2O)c2cc(F)c(O)c(O)c2Cl)C1=O)c1ccncc1 (stereo partly drawn) [Example 245, (3R)-3-(2-(2-chloro-5-fluoro-3,4-dihydroxyphenyl)-2-(3-(2-(isonicotinamido)ethyl)-2-oxoimidazolidine-1-carboxamido)acetamido)-7-fluoro-2-hydroxy-3,4-dihydro-2H-benzo[e][1,2]oxaborinine-8-carboxylic acid] |  | < 10 | < 1 | < 1 |  | < 1 |  | < 1 | > 64 | 16 to 32 (≈ 22.8 to 45.5 µM) | 16 to 32 (≈ 22.8 to 45.5 µM) |
| O=C(NCCCN1CCN(C(=O)NC(C(=O)N[C@H]2Cc3ccc(F)c(C(=O)O)c3OB2O)c2cc(F)c(O)c(O)c2Cl)C(=O)C1=O)c1ccccc1 (stereo partly drawn) [Example 202, (3R)-3-(2-(4-(3-benzamidopropyl)-2,3-dioxopiperazine-1-carboxamido)-2-(2-chloro-5-fluoro-3,4-dihydroxyphenyl)acetamido)-7-fluoro-2-hydroxy-3,4-dihydro-2H-benzo[e][1,2]oxaborinine-8-carboxylic acid] |  | < 10 | < 1 | < 1 |  | < 1 |  | 2 to 4 (≈ 2.69 to 5.38 µM) | > 64 | 16 to 32 (≈ 21.5 to 43 µM) | 16 to 32 (≈ 21.5 to 43 µM) |
| CN(CCN1CCN(C(=O)N[C@@H](C(=O)N[C@H]2Cc3ccc(F)c(C(=O)O)c3OB2O)c2cc(F)c(O)c(O)c2Cl)C(=O)C1=O)Cc1ccc(N)nc1 [Example 209, (R)-3-((R)-2-(4-(2-(((6-aminopyridin-3-yl)methyl)(methyl)amino)ethyl)-2,3-dioxopiperazine-1-carboxamido)-2-(2-chloro-5-fluoro-3,4-dihydroxyphenyl)acetamido)-7-fluoro-2-hydroxy-3,4-dihydro-2H-benzo[e][1,2]oxaborinine-8-carboxylic acid] |  | < 10 | < 1 | < 1 |  | < 1 |  | < 1 | 16 to 32 (≈ 21.5 to 42.9 µM) | 4 to 8 (≈ 5.36 to 10.7 µM) | 4 to 8 (≈ 5.36 to 10.7 µM) |
| CN(CCN1CCN(C(=O)N[C@@H](C(=O)N[C@H]2Cc3ccc(F)c(C(=O)O)c3OB2O)c2cc(F)c(O)c(O)c2Cl)C(=O)C1=O)Cc1cncc(O)c1 [Example 208, (R)-3-((R)-2-(2-chloro-5-fluoro-3,4-dihydroxyphenyl)-2-(4-(2-(((5-hydroxypyridin-3-yl)methyl)(methyl)amino)ethyl)-2,3-dioxopiperazine-1-carboxamido)acetamido)-7-fluoro-2-hydroxy-3,4-dihydro-2H-benzo[e][1,2]oxaborinine-8-carboxylic acid] |  | < 10 | < 1 | < 1 |  | < 1 |  | < 1 | 16 to 32 (≈ 21.4 to 42.8 µM) | 4 to 8 (≈ 5.36 to 10.7 µM) | 4 to 8 (≈ 5.36 to 10.7 µM) |
